Test: Study HDP-CDV-201: safety and tolerability (adverse events, laboratory abnormalities, discontinuations)
Type: in vivo, human (adult allogeneic HSCT recipients)
Conditions: 200 mg BIW
Experimental: Clinical Studies of HDP-CDV were performed and described in detail in the following Examples. For example, HDP-CDV-201 is a placebo-controlled, dose-escalating trial in HSCT CMV (R+) recipients, evaluating the ability of HDP-CDV to prevent or control CMV infection was carried out. Five cohorts were established in which participants or subjects received either placebo or the HDP-CDV orally, in doses ranging from 40 mg weekly (QW) to 200 mg twice weekly (BIW). Subjects who were post-HSCT were enrolled at the time of engraftment and randomized to HDP-CDV or placebo (3 to 1 ratio) and received blinded therapy until approximately 100 day post-transplantation. HDP-CDV doses were 40 mg QW, 100 mg QW, 200 mg QW, 200 mg BIW and 100 mg BIW. Escalation to the next dose was decided by the data monitoring committee after review of the safety data from the previous Cohort. Subjects who developed CMV disease or CMV infection requiring pre-emptive therapy with local standard of care were discontinued from blinded therapy and followed for 4 weeks. Subjects who completed treatment with blinded therapy were followed for 8 weeks post-therapy.
Data from Study HDP-CDV-201 also provided characterization of the safety and tolerability profile of HDP-CDV when administered for the prevention or control of CMV infection in high risk (R^+) post-HSCT adult subjects.
The Safety population (SAFETY) included all randomized subjects who took at least one dose of study treatment. This population was used to summarize safety outcomes based on the treatment actually received, in cases where a subject was treated contrary to the randomization schedule.
The safety and tolerability profile of HDP-CDV, including subject demographics and Baseline characteristics; the AE profile; and laboratory abnormalities of interest were analyzed in the cohorts followed in this investigation.
Subjects completing the treatment period received a full course of study medication; those completing the entire study attended visits through 8 weeks of follow up. Subjects who discontinued treatment may have done so for protocol specified reasons (e.g. development of clinically significant CMV infection requiring preemptive treatment with excluded anti-CMV medications) or for other reasons (e.g., withdrawal, adverse events, loss to follow-up). The disposition of subjects in Study HDP-CDV-201 during the double-blind, placebo-controlled treatment period (through Week 11) is listed by dosing Cohort in TABLE 23.
Adverse events were examined by severity to ensure that all safety signals were identified in this study population. Because of the frequency of events in HSCT recipients, particular attention was given to evaluation of Grade 3 […], 4 (severe), and 5 (fatal) adverse events.
Only those preferred terms for which at least one Grade 3 or higher event was experienced in any treatment group are listed. Cytomegalovirus-related AEs are excluded from this analysis.
HDP-CDV is a lipid conjugate of CDV. Because CDV is known to have adverse effects on renal function and bone marrow, decreased GFR and persistent neutropenia were identified as AEs of special interest. Key renal and hematological (TABLE 30) laboratory parameters were measured and listed below by Study HDP-CDV-201 treatment groups. TABLE 30 includes abnormal levels of serum creatinine, neutrophils, platelets, WBCs, and hemoglobin and includes data at Screening and during the treatment period.
A common metric for unit based dosing of medications is by weight (mg/kg). When the distribution of weights was examined for all subjects participating in the study, the median was 78 kg and the lower 25th percentile weight was approximately 65 kg, which translates to a cut-off of ˜3 mg/kg for a 200 mg total weekly dose. Based upon this approach, a cut-off of 3 mg/kg was used to assess the frequency of diarrhea and associated GI AEs reported for the subjects in Cohorts 3 or 4a (TABLE 40).

CCCCCCCCCCCCCCCCOCCCOP(=O)(O)COC(CO)Cn1ccc(N)nc1=O (stereo not drawn) [HDP-CDV]
TEAE Abdominal pain, Grade 3: 0 | TEAE Abdominal pain, Grade 4: 0 | TEAE Abdominal pain, Grade 5: 0 | TEAE Acute GVHD, Frequency: 24 (80.0%) | TEAE Acute GVHD, Grade 2: 8 (26.6%) | TEAE Acute GVHD, Grade 3: 10 (30.0%) | TEAE Acute GVHD, Grade 4: 2 (6.7%) | TEAE Acute GVHD, Grade 5: 3 (10.0%) | TEAE Arthralgias, Frequency: 1 (3.3%) | TEAE Arthralgias, Grade 2: 1 (3.3%) | TEAE Arthralgias, Grade 3: 0 | TEAE Arthralgias, Grade 4: 0 | TEAE Arthralgias, Grade 5: 0 | TEAE Back Pain, Frequency: 3 (10.0%) | TEAE Back Pain, Grade 2: 1 (3.3%) | TEAE Back Pain, Grade 3: 0 | TEAE Back Pain, Grade 4: 0 | TEAE Back Pain, Grade 5: 0 | TEAE Decreased appetite, Frequency: 5 (16.7%) | TEAE Decreased appetite, Grade 2: 4 (13.3%) | TEAE Decreased appetite, Grade 3: 0 | TEAE Decreased appetite, Grade 4: 0 | TEAE Decreased appetite, Grade 5: 0 | TEAE Diarrhea, Frequency: 21 (70.0%) | TEAE Diarrhea, Grade 2: 8 (26.7%) | TEAE Diarrhea, Grade 3: 11 (36.7%) | TEAE Diarrhea, Grade 4: 0 | TEAE Diarrhea, Grade 5: 0 | TEAE Fatigue, Frequency: 0 | TEAE Fatigue, Grade 2: 0 | TEAE Fatigue, Grade 3: 0 | TEAE Fatigue, Grade 4: 0 | TEAE Fatigue, Grade 5: 0 | TEAE GGT Increased, Frequency: 3 (10.0%) | TEAE GGT Increased, Grade 2: 0 | TEAE GGT Increased, Grade 3: 1 (3.3%) | TEAE GGT Increased, Grade 4: 1 (3.3%) | TEAE GGT Increased, Grade 5: 0 | TEAE Generalized oedema, Frequency: 3 (10.0%) | TEAE Generalized oedema, Grade 2: 0 | TEAE Generalized oedema, Grade 3: 2 (6.7%) | TEAE Generalized oedema, Grade 4: 0 | TEAE Generalized oedema, Grade 5: 0 | TEAE Hyperbilirubinaemia, Frequency: 5 (16.7%) | TEAE Hyperbilirubinaemia, Grade 2: 1 (3.3%) | TEAE Hyperbilirubinaemia, Grade 3: 0 | TEAE Hyperbilirubinaemia, Grade 4: 1 (3.3%) | TEAE Hyperbilirubinaemia, Grade 5: 0 | TEAE Hyperglycaemia, Frequency: 8 (26.7%) | TEAE Hyperglycaemia, Grade 2: 5 (16.7%) | TEAE Hyperglycaemia, Grade 3: 2 (6.7%) | TEAE Hyperglycaemia, Grade 4: 0 | TEAE Hyperglycaemia, Grade 5: 0 | TEAE Hyperkalemia, Frequency: 3 (10.0%) | TEAE Hyperkalemia, Grade 2: 1 (3.3%) | TEAE Hyperkalemia, Grade 3: 1 (3.3%) | TEAE Hyperkalemia, Grade 4: 0 | TEAE Hyperkalemia, Grade 5: 0 | TEAE Hypocalcaemia, Frequency: 3 (10.0%) | TEAE Hypocalcaemia, Grade 2: 1 (3.3%) | TEAE Hypocalcaemia, Grade 3: 1 (3.3%) | TEAE Hypocalcaemia, Grade 4: 0 | TEAE Hypocalcaemia, Grade 5: 0 | TEAE Hypokalaemia, Frequency: 5 (16.7%) | TEAE Hypokalaemia, Grade 2: 1 (3.3%) | TEAE Hypokalaemia, Grade 3: 1 (3.3%) | TEAE Hypokalaemia, Grade 4: 0 | TEAE Hypokalaemia, Grade 5: 0 | TEAE Hyponatraemia, Frequency: 2 (6.7%) | TEAE Hyponatraemia, Grade 2: 0 | TEAE Hyponatraemia, Grade 3: 0 | TEAE Hyponatraemia, Grade 4: 0 | TEAE Hyponatraemia, Grade 5: 0 | TEAE LFT Abnormal, Frequency: 3 (10.0%) | TEAE LFT Abnormal, Grade 2: 1 (3.3%) | TEAE LFT Abnormal, Grade 3: 1 (3.3%) | TEAE LFT Abnormal, Grade 4: 0 | TEAE LFT Abnormal, Grade 5: 0 | TEAE Leukocytosis, Frequency: 3 (10.0%) | TEAE Leukocytosis, Grade 2: 1 (3.3%) | TEAE Leukocytosis, Grade 3: 0 | TEAE Leukocytosis, Grade 4: 0 | TEAE Leukocytosis, Grade 5: 0 | TEAE Nausea, Frequency: 11 (36.7%) | TEAE Nausea, Grade 2: 6 (20.0%) | TEAE Nausea, Grade 3: 1 (3.3%) | TEAE Nausea, Grade 4: 0 | TEAE Nausea, Grade 5: 0 | TEAE Neutropenia, Frequency: 4 (13.3%) | TEAE Neutropenia, Grade 2: 0 | TEAE Neutropenia, Grade 3: 1 (3.3%) | TEAE Neutropenia, Grade 4: 2 (6.7%) | TEAE Neutropenia, Grade 5: 0 | TEAE Pneumonia, Frequency: 1 (3.3%) | TEAE Pneumonia, Grade 2: 0 | TEAE Pneumonia, Grade 3: 1 (3.3%) | TEAE Pneumonia, Grade 4: 0 | TEAE Pneumonia, Grade 5: 0 | TEAE Pyrexia, Frequency: 2 (6.7%) | TEAE Pyrexia, Grade 2: 0 | TEAE Pyrexia, Grade 3: 0 | TEAE Pyrexia, Grade 4: 0 | TEAE Pyrexia, Grade 5: 0 | TEAE Renal Failure, Frequency: 0 | TEAE Renal Failure, Grade 2: 0 | TEAE Renal Failure, Grade 3: 0 | TEAE Renal Failure, Grade 4: 0 | TEAE Renal Failure, Grade 5: 0 | TEAE Staphylococcal Bacteremia, Frequency: 1 (3.3%) | TEAE Staphylococcal Bacteremia, Grade 2: 0 | TEAE Staphylococcal Bacteremia, Grade 3: 1 (3.3%)

Source: patent US20140303092A1 (CHIMERIX, INC., priority 2011, published 2014)
